The values below are quoted from earlier work in US8236354B1, “Use of immunomodulators for the treatment of cancer” (ZOR Pharmaceuticals, LLC, priority 2012, dated 2012).

For the data set, the system named is advanced pancreatic cancer. The conditions noted are these: cited from earlier work; for median Overall Survival: survival from study enrollment to death from any cause.

For `O=c1[nH]cc(F)c(=O)[nH]1` [5-FU, 5-fluorouracil], the “median Overall Survival” value is listed as 4.2 months.

As to `Nc1ccn([C@@H]2O[C@H](CO)[C@@H](O)C2(F)F)c(=O)n1` [gemcitabine], the “median Overall Survival” value was 5.7 months. The “increased median survival versus 5-FU” value (in vivo) was 1.5 months.
